Patent US9597382B2, “KNTC2 peptides and vaccines containing the same” (ONCOTHERAPY SCIENCE, INC., priority 2013, dated 2017)

Legend:
[1] = tested on: peptide-pulsed C1R-A02 cells; assay: IFN-gamma ELISPOT assay on CTLs induced with KNTC2 peptides; format: cell-based, human; settings: CTLs induced with peptide-pulsed DCs from HLA-A*0201 positive donor; peptide-pulsed C1R-A02 cells vs control wells
Description: Monocyte-derived dendritic cells (DCs) were used as antigen-presenting cells to induce cytotoxic T lymphocyte (CTL) responses against peptides presented on human leukocyte antigen (HLA). DCs were generated in vitro as described elsewhere (Nakahara S et al., Cancer Res 2003 Jul. 15, 63(14): 4112-8). Specifically, peripheral blood mononuclear cells isolated from a normal volunteer (HLA-A*0201 positive) by Ficoll-Paque plus (Pharmacia) solution were separated by adherence to a plastic tissue culture dish (Becton Dickinson) so as to enrich them as the monocyte fraction. The monocyte-enriched population was cultured in the presence of 1000 IU/ml of granulocyte-macrophage colony-stimulating factor (R&D System) and 1000 IU/ml of interleukin (IL)-4 (R&D System) in AIM-V Medium (Invitrogen) containing 2% heat-inactivated autologous serum (AS). After 7 days of culture, the cytokine-induced DCs were pulsed with 20 micro g/ml of each of the synthesized peptides in the presence of 3 micro g/ml of beta 2-microglobulin for 3 hr at 37 degrees C. in AIM-V Medium. The generated cells appeared to express DC-associated molecules, such as CD80, CD83, CD86 and HLA class II, on their cell surfaces (data not shown). These peptide-pulsed DCs were then inactivated by X ray-irradiated (20 Gy) and mixed at a 1:20 ratio with autologous CD8+ T cells, obtained by positive selection with CD8 Positive Isolation Kit (Dynal). These cultures were set up in 48-well plates (Corning); each well contained 1.5×10^4 peptide-pulsed DCs, 3×10^5 CD8+ T cells and 10 ng/ml of IL-7 (R&D System) in 0.5 ml of AIM-V/2% AS medium. Three days later, these cultures were supplemented with IL-2 (CHIRON) to a final concentration of 20 IU/ml. On day 7 and 14, the T cells were further stimulated with the autologous peptide-pulsed DCs. The DCs were prepared each time by the same way described above. CTL was tested against peptide-pulsed C1R-A02 cells after the 3rd round of peptide stimulation on day 21 (Tanaka H et al., Br J Cancer 2001 Jan. 5, 84(1): 94-9; Umano Y et al., Br J Cancer 2001 Apr. 20, 84(8): 1052-7; Uchida N et al., Clin Cancer Res 2004 Dec. 15, 10(24): 8577-86; Suda T et al., Cancer Sci 2006 May, 97(5): 411-9; Watanabe T et al., Cancer Sci 2005 August, 96(8): 498-506).
(§1) To examine specific CTL activity, IFN-gamma ELISPOT assay and IFN-gamma ELISA were performed. Peptide-pulsed C1R-A02 cells (1×10^4/well) were prepared as stimulator cells. Cultured cells in 48-well plate, CTL lines and CTL clones were used as responder cells. IFN-gamma ELISPOT assay and IFN-gamma ELISA were performed under the manufacturer's procedure.

[2] = tested on: COS7 cells transfected with KNTC2 and HLA-A*0201; assay: Specific CTL activity against target cells expressing KNTC2 and HLA-A*0201; format: cell-based, African green monkey
Description: The cDNA encoding an open reading frame of target genes or HLA-A*0201 was amplified by PCR. The PCR-amplified product was cloned into expression vector. The plasmids were transfected into COS7, which is the target genes and HLA-A*0201-null cell line, using lipofectamine 2000 (Invitrogen) according to the manufacturer's procedure. After 2 days from transfection, the transfected cells were harvested with versene (Invitrogen) and used as the stimulator cells (5×10^4 cells/well) for CTL activity assay.
The established CTL line raised against KNTC2-A02-9-184 (SEQ ID NO: 7) peptide was examined for the ability to recognize target cells that express KNTC2 and HLA-A*0201 molecule. COS7 cells transfected with both the full length of KNTC2 and HLA-A*0201 gene (a specific model for the target cells that express KNTC2 and HLA-A*0201 gene) were prepared as a stimulator cells, and COS7 cells transfected with either full length of KNTC2 or HLA-A*0201 were used as the controls.

[3] = tested on: peptide-pulsed C1R-A02 cells; assay: IFN-gamma ELISA of CTL lines; format: cell-based, human; settings: target cells pulsed with corresponding peptide vs without peptide pulse
Protocol: CTLs were expanded in culture using the method similar to the one described by Riddell et al. (Walter E A et al., N Engl J Med 1995 Oct. 19, 333(16): 1038-44; Riddell S R et al., Nat Med 1996 Feb. 2(2): 216-23). A total of 5×10^4 CTLs were suspended in 25 ml of AIM-V/5% AS medium with 2 kinds of human B-lymphoblastoid cell lines, inactivated by Mitomycin C, in the presence of 40 ng/ml of anti-CD3 monoclonal antibody (Pharmingen). One day after initiating the cultures, 120 IU/ml of IL-2 were added to the cultures. The cultures were fed with fresh AIM-V/5% AS medium containing 30 IU/ml of IL-2 on days 5, 8 and 11 (Tanaka H et al., Br J Cancer 2001 Jan. 5, 84(1): 94-9; Umano Y et al., Br J Cancer 2001 Apr. 20, 84(8): 1052-7; Uchida N et al., Clin Cancer Res 2004 Dec. 15, 10(24): 8577-86; Suda T et al., Cancer Sci 2006 May, 97(5): 411-9; Watanabe T et al., Cancer Sci 2005 August, 96(8): 498-506).
as §1

[4] = tested on: C1R-A02 cells pulsed with corresponding peptide; assay: IFN-gamma ELISA of CTL clones established by limiting dilution; format: cell-based, human
Protocol: The dilutions were made to have 0.3, 1, and 3 CTLs/well in 96 round-bottomed micro titer plate (Nalge Nunc International). CTLs were cultured with 1×10^4 cells/well of 2 kinds of human B-lymphoblastoid cell lines, 30 ng/ml of anti-CD3 antibody, and 125 IU/ml of IL-2 in a total of 150 micro 1/well of AIM-V Medium containing 5% AS. 50 micro 1/well of IL-2 were added to the medium 10 days later to reach a final concentration of 125 IU/ml IL-2. CTL activity was tested on the 14th day, and CTL clones were expanded using the same method as described above (Uchida N et al., Clin Cancer Res 2004 Dec. 15, 10(24): 8577-86; Suda T et al., Cancer Sci 2006 May, 97(5): 411-9; Watanabe T et al., Cancer Sci 2005 August, 96(8): 498-506).
as §1

## AILDQKLNGL (a peptide derived from KNTC2) [SEQ ID NO: 53, 10mer peptide derived from KNTC2, start position 322]
[1]
  Peptide specific CTL activity (IFN-gamma production) by IFN-gamma ELISPOT: potent IFN-gamma production

## ALVWLIDCI (a peptide derived from KNTC2) [SEQ ID NO: 7, 9mer peptide derived from KNTC2, start position 184]
[1]
  Peptide specific CTL activity (IFN-gamma production) by IFN-gamma ELISPOT: potent IFN-gamma production
[2]; COS7 transfected with both full length KNTC2 and HLA-A*0201
  CTL activity of CTL line against COS7 cells expressing both KNTC2 and HLA-A*0201: potent CTL activity
[2]; COS7 transfected with either full length KNTC2 or HLA-A*0201
  CTL activity of CTL line against control COS7 cells: no significant specific CTL activity was detected
[3]
  IFN-gamma production of CTL lines by IFN-gamma ELISA: potent IFN-gamma production
[4]
  IFN-gamma production of CTL clones by IFN-gamma ELISA: Potent IFN-gamma production

## IVAALVWLI (a peptide derived from KNTC2) [SEQ ID NO: 3, 9mer peptide derived from KNTC2, start position 181]
[1]
  Peptide specific CTL activity (IFN-gamma production) by IFN-gamma ELISPOT: potent IFN-gamma production
[3]
  IFN-gamma production of CTL lines by IFN-gamma ELISA: potent IFN-gamma production
[4]
  IFN-gamma production of CTL clones by IFN-gamma ELISA: Potent IFN-gamma production

## FLYGFLCPS (a peptide derived from KNTC2) [SEQ ID NO: 2, 9mer peptide derived from KNTC2, start position 131]
[1]
  Peptide specific CTL activity (IFN-gamma production) by IFN-gamma ELISPOT: potent IFN-gamma production
[3]
  IFN-gamma production of CTL lines by IFN-gamma ELISA: potent IFN-gamma production
[4]
  IFN-gamma production of CTL clones by IFN-gamma ELISA: Potent IFN-gamma production

## GLNEEIARV (a peptide derived from KNTC2) [SEQ ID NO: 1, 9mer peptide derived from KNTC2, start position 330]
[1]
  Peptide specific CTL activity (IFN-gamma production) by IFN-gamma ELISPOT: no specific IFN-gamma production

## LVWLIDCIKI (a peptide derived from KNTC2) [SEQ ID NO: 68, 10mer peptide derived from KNTC2, start position 185]
[1]
  Peptide specific CTL activity (IFN-gamma production) by IFN-gamma ELISPOT: potent IFN-gamma production

## KIFTFLYGF (a peptide derived from KNTC2) [SEQ ID NO: 17, 9mer peptide derived from KNTC2, start position 127]
[1]
  Peptide specific CTL activity (IFN-gamma production) by IFN-gamma ELISPOT: potent IFN-gamma production

## KIFTFLYGFL (a peptide derived from KNTC2) [SEQ ID NO: 41, 10mer peptide derived from KNTC2, start position 127]
[1]
  Peptide specific CTL activity (IFN-gamma production) by IFN-gamma ELISPOT: potent IFN-gamma production
